According to patent publication US20230226100A1, “CYCLODEXTRIN BASED ANTI-MICROBIAL THERAPY” (University of Southern California, priority 2020, published 2023):

What was measured:
Type in all cases: cell-based
A549 = test: Alamar Blue chemical dye penetration through barrier, A549
Method: (§1) Studies test efficacy barrier to prevent chemical dye penetration. We used a resurazine dye that can penetrate across cellular membranes where it is […] to form a purple color and is quantifiable using fluorescence or visible light. Chemical exposure used Alamar Blue which was incubated for 4 hours. The ability of the barrier formulation to prevent chemical penetration was measured at 570 nm and confirmed using fluorescence intensity (560/590 nm) readings. A concentration dependent response to HPBCD was observed over four hours of incubation. The chemical dye penetration was reduced with increasing percent beta cyclodextrin across all timepoints (FIG. 5).
The ability to block chemical exposure was also conducted in the other cyclodextrins namely hydroxypropyl gamma cyclodextrin (HPGCD), sulfonylbutyl ethyl beta cyclodextrins (SBEBCD), and randomly methylated methyl beta cyclodextrins (CRYSMEB) and incubating over 4 hours. The ability of the barrier formulations to prevent chemical penetration was measured at an absorbance of 570 nm and confirmed using fluorescence intensity (560/590 nm) readings. […] The addition of HEC improved the ability to prevent chemical penetration (Table 2). Although the data is unexpected, it allows for further probe into the effect of these cyclodextrin derivatives on viral particles which may be bigger and more hydrophobic.
(§2) To determine the ability of the candidate nanoscale barrier to prevent chemical penetration, epithelial cells (e.g., HEK293T, A549, Vero-E6 ACE2) were seeded at 1×10^4 cells per well and incubated in DMEM till confluence. Cyclodextrin-based formation candidates were tested at various concentrations from 0 to 20% was added at varying concentrations (% w/v) and incubated for 0.5 h prior to the addition of the Alamar Blue. Alamar Blue is able to penetrate the cell, where viable cells are able to reduce the resazurin-based solution to quantitatively measure level of penetration.

A549 cells = test: Safety of barriers: A549 cell morphology; details: 5% concentrations; incubated 1 h; 10× magnification
Method: During protection of mucocutaneous linings, barriers will be exposed repeatedly due to frequent dosing. A critical criterion for selecting the right cyclodextrin for a nanoformulation barrier usable in this application is the safety of the cyclodextrin type. A549 cells were seeded at 4×10^4 cells per well and grown to confluence. Cyclodextrin-based formation candidates were tested at 5% concentrations and incubated for 1 h prior to the addition. The barrier was then replaced with media for evaluation. Pictures were taken for at least five field views at 10× magnification.

HEK293T = test: Alamar Blue chemical dye penetration through barrier, HEK293T
Method: as §1, §2

Vero-E6 ACE2 = test: Alamar Blue chemical dye penetration through barrier, Vero-E6 ACE2
Method: as §1, §2

[1] = tested on: pLV[Exp]-Puro-CMV>EGFP lentivirus; test: EGFP lentivirus infection of HEK293T cells in presence of barrier
Method: To simulate viral infection, we used lentivirus that has green fluorescent protein (GFP) incorporated into its gene. Lentivirus are designed to be highly efficient to transfect epithelial cells such as HEK293T. The effect of HPBCD barrier to present viral infection was evaluated using a concentration escalation study, where HPBCD ranged from 0 to 25% (w/v). In this study, we used a pLV[Exp]-Puro-CMV>EGFP lentivirus to infect HEK293T.
Human muco-ciliary deposition and clearance of exogenous substances occurs in 30 minutes as determined through real time methodology (Thrall et al., Inhalation Toxicology, 2003. 15(6): p. 523-538). Subsequently the EGFP lentivirus was incubated in the presence and absence of the HPBCD barrier for reduced time periods (0.5 h and 2 h) to reflect applicability of a HPBCD nasal spray. After the incubation period, barriers were removed, and cells were washed with 1×PBS before replacement with complete cell culture medium. 24 hours post-incubation at 5% CO2 and 37 degrees C., fluorescence imaging was conducted using the Biotek Cytation 5 imaging device in which 4×GFP images were taken. […] After 30 minutes of incubation with the virus, there is 50% reduction of viral infectivity as measured by fluorescence signal using 5% HPBCD.
To test the ability to prevent viral Epithelial cells (e.g., HEK293T, A549, Vero-E6 ACE2) were used a models chemical and viral infections. Cells were seeded onto 96-well plates at a density of 10^4 cells per well and incubated in DMEM (phenol red free) with 10% FBS and 1% non-essential ammino acids (NEAA). Cells were allowed to attach and grown to confluence to allow for cell polarization prior to experimentation.
Cyclodextrin was added at varying concentrations (% w/v) and incubated for 0.5 h prior to the addition of the virus. Polybrene added at a final concentration of 5 ug/mL to promote viral uptake. Cells were then infected with pLV[Exp]-Puro-CMV>EGFP lentivirus and incubated at 37° C., 5% CO2 for 0.5, 2, or 24 h depending upon the experimental setup. After the incubation time, the beta cyclodextrin solution was removed and cells washed with 1×PBS twice prior to the addition of complete growth medium (DMEM). GFP lentivirus was imaged using the Cytation 5 (Biotek) and relative fluorescence quantified using the Synergy H1 microplate reader (Biotek).

[2] = Table 2, confluent A549, 2.5% cyclodextrin (+ HEC: 0.188% HEC), 2 hr, negative values = increase in fluorescence intensity
[3] = Table 2, confluent A549, 2.5% cyclodextrin (+ HEC: 0.188% HEC), 4 hr, negative values = increase in fluorescence intensity
[4] = Table 2, confluent A549, 5% cyclodextrin (+ HEC: 0.375% HEC), 2 hr, negative values = increase in fluorescence intensity
[5] = Table 2, confluent A549, 5% cyclodextrin (+ HEC: 0.375% HEC), 4 hr, negative values = increase in fluorescence intensity
[6] = Table 2, confluent A549, 10% cyclodextrin (+ HEC: 0.75% HEC), 2 hr, negative values = increase in fluorescence intensity
[7] = Table 2, confluent A549, 10% cyclodextrin (+ HEC: 0.75% HEC), 4 hr, negative values = increase in fluorescence intensity
[8] = confluent A549, incubation over 4 hours
[9] = 2.5% HPBCD (Combination: + 0.188% HEC), 2 hr
[10] = 2.5% HPBCD (Combination: + 0.188% HEC), 4 hr
[11] = 5% HPBCD (Combination: + 0.375% HEC), 2 hr
[12] = 5% HPBCD (Combination: + 0.375% HEC), 4 hr
[13] = 10% HPBCD (Combination: + 0.75% HEC), 2 hr
[14] = 10% HPBCD (Combination: + 0.75% HEC), 4 hr

Question: “crystalline methylated beta-cyclodextrin [CRYSMEB]” was tested. Which “chemical dye penetration (in words)” value (A549; A549, across all timepoints) did it give?
Answer: reduced in a dose-dependent manner

Question: And the “Percent Reduction Compared to No Barrier Treatment (Mean ± SD)” value (A549; [2])?
Answer: 36.0 ± 2.3%

Question: What about the “Percent Reduction Compared to No Barrier Treatment (Mean ± SD)” value (A549; [3]) of the same molecule?
Answer: 35.3 ± 1.9%

Question: And the “Percent Reduction Compared to No Barrier Treatment (Mean ± SD)” value (A549; [4])?
Answer: 47.9 ± 0.8%

Question: And the “Percent Reduction Compared to No Barrier Treatment (Mean ± SD)” value (A549; [5])?
Answer: 52.3 ± 2.6%

Question: And the “Percent Reduction Compared to No Barrier Treatment (Mean ± SD)” value (A549; [6])?
Answer: 58.5 ± 1.4%

Question: And the “Percent Reduction Compared to No Barrier Treatment (Mean ± SD)” value (A549; [7])?
Answer: 67.6 ± 2.3%

Question: And the “A549 cell morphology / cell death” value (A549 cells)?
Answer: cellular death and cellular morphological changes

Question: “2-Hydroxypropyl-Gamma-cyclodextrin [HPGCD]” was tested. Which “Percent Reduction Compared to No Barrier Treatment (Mean ± SD)” value (A549; [2]) did it give?
Answer: −89.9 ± 3.8%

Question: What about the “Percent Reduction Compared to No Barrier Treatment (Mean ± SD)” value (A549; [3]) of the same molecule?
Answer: −244.5 ± 3.0%

Question: What about the “Percent Reduction Compared to No Barrier Treatment (Mean ± SD)” value (A549; [4]) of the same molecule?
Answer: −46.7 ± 2.4%

Question: What about the “Percent Reduction Compared to No Barrier Treatment (Mean ± SD)” value (A549; [5]) of the same molecule?
Answer: −210.66 ± 3.0%

Question: What about the “Percent Reduction Compared to No Barrier Treatment (Mean ± SD)” value (A549; [6]) of the same molecule?
Answer: −13.1 ± 1.4%

Question: And the “Percent Reduction Compared to No Barrier Treatment (Mean ± SD)” value (A549; [7])?
Answer: −97.0 ± 2.1%

Question: What about the “chemical dye penetration (in words)” value (A549; [8]) of the same molecule?
Answer: enhanced chemical dye penetration

Question: With “sulfobutyl ether-beta-cyclodextrin [SBEBCD]” as the molecule, how does the “Percent Reduction Compared to No Barrier Treatment (Mean ± SD)” value (A549; [2]) read?
Answer: 10.7 ± 2.57%

Question: And the “Percent Reduction Compared to No Barrier Treatment (Mean ± SD)” value (A549; [3])?
Answer: −244.5 ± 3.0%

Question: And the “Percent Reduction Compared to No Barrier Treatment (Mean ± SD)” value (A549; [4])?
Answer: 39.5 ± 1.2%

Question: And the “Percent Reduction Compared to No Barrier Treatment (Mean ± SD)” value (A549; [5])?
Answer: −218.2 ± 13.2%

Question: And the “Percent Reduction Compared to No Barrier Treatment (Mean ± SD)” value (A549; [6])?
Answer: 51.3 ± 2.4%

Question: What about the “Percent Reduction Compared to No Barrier Treatment (Mean ± SD)” value (A549; [7]) of the same molecule?
Answer: −108.2 ± 19.5%

Question: And the “chemical dye penetration (in words)” value (A549; confluent A549, 2 h timepoint)?
Answer: dose-dependent reduction in chemical dye penetration

Question: What about the “chemical dye penetration (in words)” value (A549; [8]) of the same molecule?
Answer: enhanced chemical dye penetration

Question: `CC(O)COC[C@H]1O[C@@H]2O[C@H]3[C@H](O)[C@@H](O)[C@@H](O[C@H]4[C@H](O)[C@@H](O)[C@@H](O[C@H]5[C@H](O)[C@@H](O)[C@@H](O[C@H]6[C@H](O)[C@@H](O)[C@@H](O[C@H]7[C@H](O)[C@@H](O)[C@@H](O[C@H]8[C@H](O)[C@@H](O)[C@@H](O[C@H]1[C@H](O)[C@H]2O)O[C@@H]8COCC(C)O)O[C@@H]7COCC(C)O)O[C@@H]6COCC(C)O)O[C@@H]5COCC(C)O)O[C@@H]4COCC(C)O)O[C@@H]3COCC(C)O` (stereo partly drawn) [HPBCD, (2-Hydroxypropyl)-Beta-Cyclodextrin] was tested. Which “Percent Reduction Compared to No Barrier Treatment (Mean ± SD)” value (A549; A549, 2.5% HPBCD (Combination: + 0.188% HEC), 2 hr) did it give?
Answer: 82.5 ± 1.4%

Question: What about the “Percent Reduction Compared to No Barrier Treatment (Mean ± SD)” value (A549; A549, 2.5% HPBCD (Combination: + 0.188% HEC), 4 hr) of the same molecule?
Answer: 66.9 ± 1.9%

Question: And the “Percent Reduction Compared to No Barrier Treatment (Mean ± SD)” value (A549; A549, 5% HPBCD (Combination: + 0.375% HEC), 2 hr)?
Answer: 88.5 ± 0.7%

Question: What about the “Percent Reduction Compared to No Barrier Treatment (Mean ± SD)” value (A549; A549, 5% HPBCD (Combination: + 0.375% HEC), 4 hr) of the same molecule?
Answer: 81.5 ± 0.7%

Question: And the “Percent Reduction Compared to No Barrier Treatment (Mean ± SD)” value (A549; A549, 10% HPBCD (Combination: + 0.75% HEC), 2 hr)?
Answer: 89.3 ± 0.6%

Question: And the “Percent Reduction Compared to No Barrier Treatment (Mean ± SD)” value (A549; A549, 10% HPBCD (Combination: + 0.75% HEC), 4 hr)?
Answer: 82.9 ± 0.9%

Question: And the “Percent Reduction Compared to No Barrier Treatment (Mean ± SD)” value (HEK293T; [9])?
Answer: 70.4 ± 1.7%

Question: And the “Percent Reduction Compared to No Barrier Treatment (Mean ± SD)” value (HEK293T; [10])?
Answer: 71.7 ± 0.8%

Question: And the “Percent Reduction Compared to No Barrier Treatment (Mean ± SD)” value (HEK293T; [11])?
Answer: 77.5 ± 0.6%

Question: And the “Percent Reduction Compared to No Barrier Treatment (Mean ± SD)” value (HEK293T; [12])?
Answer: 80.4 ± 0.8%

Question: And the “Percent Reduction Compared to No Barrier Treatment (Mean ± SD)” value (HEK293T; [13])?
Answer: 79.8 ± 0.6%

Question: What about the “Percent Reduction Compared to No Barrier Treatment (Mean ± SD)” value (HEK293T; [14]) of the same molecule?
Answer: 84.3 ± 0.6%

Question: What about the “chemical dye (Alamar blue) penetration, relative fluorescence intensity vs no treatment” value (HEK293T; FIG. 5, P<0.01) of the same molecule?
Answer: statistically significant reduction

Question: And the “Percent Reduction Compared to No Barrier Treatment (Mean ± SD)” value (Vero-E6 ACE2; [9])?
Answer: 62.8 ± 2.0%

Question: What about the “Percent Reduction Compared to No Barrier Treatment (Mean ± SD)” value (Vero-E6 ACE2; [10]) of the same molecule?
Answer: 67.1 ± 1.8%

Question: And the “Percent Reduction Compared to No Barrier Treatment (Mean ± SD)” value (Vero-E6 ACE2; [11])?
Answer: 70.2 ± 1.2%

Question: What about the “Percent Reduction Compared to No Barrier Treatment (Mean ± SD)” value (Vero-E6 ACE2; [12]) of the same molecule?
Answer: 76.9 ± 0.6%

Question: What about the “Percent Reduction Compared to No Barrier Treatment (Mean ± SD)” value (Vero-E6 ACE2; [13]) of the same molecule?
Answer: 73.5 ± 1.2%

Question: And the “Percent Reduction Compared to No Barrier Treatment (Mean ± SD)” value (Vero-E6 ACE2; [14])?
Answer: 82.5 ± 0.9%

Question: What about the “viral infectivity (GFP expressing lentiviruses)” value ([1]; 5-20% HPBCD alone) of the same molecule?
Answer: able to reduce viral infectivity

Question: What about the “signs of lentivirus infection” value ([1]; 20% HPBCD alone as a barrier) of the same molecule?
Answer: No signs of lentivirus infection

Question: And the “infectivity in HEK cells” value ([1]; 0.5 h and 2 h incubation, p<0.05 and p<0.01 respectively)?
Answer: concentration dependent decrease in infectivity

Question: And the “reduction of viral infectivity as measured by fluorescence signal” value ([1]; HEK293T, 5% HPBCD, 30 minutes of incubation with the virus)?
Answer: 50%

Question: What about the lentivirus infectivity ([1]; HEK293T, MOI of 5, 6 hours, 10% and 20% HPBCD, p≤0.01) of the same molecule?
Answer: reduced lentivirus infectivity

Question: What about the “A549 cell morphology / cell death” value (A549 cells) of the same molecule?
Answer: No significant changes in cellular morphology or cell death
